Where two headings read alike, the source gives them in different places.
Columns and labels:
[1] = target: T1, EGFR (Homo sapiens, UniProt P00533); test: EGFR-Autophosphorylation Assay (AMIKA assay); type: biochemical; details: A431 membranes; for inhibition at 1 µM: 1 μM compound; for inhibition at 1 µM / inhibition at 10 µM: EGF-stimulated; for inhibition at 10 µM: 10 μM compound; for IC50: EGF 200 nM pre-treatment
T1 construct: A431 crude membrane extracts as source of the receptor; endogenous in cells; host or cells: A431 human epidermoid carcinoma cells, crude membranes
Experimental: EGFR-Autophosphorylation Assay (AMIKA assay) The EGFR autophosphorylation was assayed using A431 crude membrane extracts as source of the receptor. Membrane purification: Membranes were prepared as reported by A. Levitzky et al. (Methods in Enzymology 201, 347 (1991) with minor modifications and adapting the method to the A431 human epidermoid carcinoma cell line. Briefly, low density cells growing in RPMI 1640 plus 10% foetal calf serum were detached using 1 mM EDTA in phosphate buffer saline (PBS) and lysed in cold Lysing buffer (1 ml/10^6 cells) (20 mM HEPES pH 7.6, 10 mM NaCl, 2 mM EDTA, […], 1 mM PMSF). Cells were homogenized by 10 strokes in Dounce homogenizer. Nuclei and debris were removed by low speed centrifugation. Membranes were pelletized by ultracentrifugation (1 h, 100000×g) and resuspended in cold HNG buffer (50 mM HEPES pH 7.6, 125 mM NaCl, 10% glycerol). Protein concentration, determined by Pierce BCA method, was adjusted to 1.5-2 mg/ml. Aliquots were stored at -80° C. Determination of IC50 : […] The reaction was stopped with […] solution. The samples were heated 5 min at 95° C. and submitted to SDS-PAGE (7.5% acrylamide gel). Gels were fixed in 40% methanol:10% acetic acid for 1 h and washed overnight with 20% methanol:7% acetic acid. After 15 min in 50% methanol:2% glycerol gels were dried and exposed overnight. Bands corresponding to EGFR were excised from the gels and counted in a β-counter.

[2] = system: EGF-induced tyrosine phosphorylation in A431 cells; test: Inhibition of cellular tyrosine autophosphorylation (VAP assay); type: cell-based; details: Homo sapiens, A-431, 10 min, read-out: VAP IC50
Experimental: Inhibition of cellular tyrosine autophosphorylation (VAP assay)
EGF is able to induce the phosphorylation in tyrosine of a specific set of intracellular proteins including EGFR itself. This increase in tyrosine phosphorylation was measured using the Vectastain-ABC-AP kit (Vector Laboratories) following the manufacturer's instructions. Briefly, 2×10^4 A431 cells per well were plated into a microtiter plate and incubated for 3 days at 37° C./5% CO2 until the cultures reached confluency. Cell monolayers were washed with PBS and covered with fresh medium containing 0.1 bovine serum albumin (BSA). Serial dilution of test compounds were added 2 h before the addition of 100 ng/ml EGF; after 10 min stimulation the culture medium was withdrawn, cells were washed 2 times with PBS and fixed for 10 min with cold methanol (-20° C.). After fixation […] of blocking solution (3% BSA in PBS, 0.2% Tween 20, 1% normal horse serum) were added for 1 h at 37° C. Blocking solution was replaced with 3% BSA in PBS containing the antiphosphotyrosine antibody 4G10 (UBI) diluted 1:30000 and incubated for 1 h. […] Reaction was developed for 30 min in the dark and the plates were read at 405 nm.

[3] = system: A431 cells; test: SRB-Antiproliferative assay (A431 assay); type: cell-based; details: Homo sapiens, A-431, 72 h, read-out: A431 IC50
Experimental: SRB-Antiproliferative assay (A431 assay)
A431 cells were seeded into 96-well microtiter plates (5000 cells/cm^2) and incubated overnight at 37° C./5% CO2. Compounds dissolved in DMSO were added in serial dilution and plates were incubated for 3 days at 37° C./5% CO2. Cells were fixed with cold TCA (10% final concentration) and stained with 0.4% Sulforhodamine B dye in 1% acetic acid for 30 min.

T1 sequence (P00533 25-1210): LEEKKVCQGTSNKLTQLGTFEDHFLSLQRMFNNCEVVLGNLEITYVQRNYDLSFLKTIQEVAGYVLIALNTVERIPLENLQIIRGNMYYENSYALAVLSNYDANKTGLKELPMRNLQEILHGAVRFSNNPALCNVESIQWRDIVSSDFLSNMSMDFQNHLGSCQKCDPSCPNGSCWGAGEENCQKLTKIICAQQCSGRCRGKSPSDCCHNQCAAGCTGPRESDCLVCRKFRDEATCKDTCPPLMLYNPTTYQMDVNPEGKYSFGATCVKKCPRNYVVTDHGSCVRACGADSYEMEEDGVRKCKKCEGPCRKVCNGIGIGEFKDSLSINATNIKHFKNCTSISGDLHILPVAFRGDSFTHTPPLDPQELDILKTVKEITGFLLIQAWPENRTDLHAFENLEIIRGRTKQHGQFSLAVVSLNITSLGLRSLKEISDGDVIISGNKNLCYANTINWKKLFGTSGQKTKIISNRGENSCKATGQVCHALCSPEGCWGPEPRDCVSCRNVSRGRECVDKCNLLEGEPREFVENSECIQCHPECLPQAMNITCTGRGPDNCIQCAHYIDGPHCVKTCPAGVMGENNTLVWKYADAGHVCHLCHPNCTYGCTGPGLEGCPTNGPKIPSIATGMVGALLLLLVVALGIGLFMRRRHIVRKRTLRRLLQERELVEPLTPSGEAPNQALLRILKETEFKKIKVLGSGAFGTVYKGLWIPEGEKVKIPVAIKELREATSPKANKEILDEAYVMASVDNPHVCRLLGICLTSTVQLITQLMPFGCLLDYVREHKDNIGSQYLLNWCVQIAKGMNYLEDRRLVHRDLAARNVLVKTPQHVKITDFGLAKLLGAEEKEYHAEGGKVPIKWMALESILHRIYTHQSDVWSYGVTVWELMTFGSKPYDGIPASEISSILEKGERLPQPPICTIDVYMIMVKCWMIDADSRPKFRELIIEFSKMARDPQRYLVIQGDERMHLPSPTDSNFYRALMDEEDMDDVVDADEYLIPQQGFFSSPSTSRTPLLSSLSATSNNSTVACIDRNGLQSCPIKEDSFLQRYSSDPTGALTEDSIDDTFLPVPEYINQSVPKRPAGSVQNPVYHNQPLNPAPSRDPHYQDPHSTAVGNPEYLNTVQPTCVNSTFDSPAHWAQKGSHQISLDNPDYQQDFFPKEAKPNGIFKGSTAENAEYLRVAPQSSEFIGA

| Compound | inhibition at 1 µM [1] [%] | inhibition at 10 µM [1] [%] | IC50 [1] [µM] | IC50 [2] [µM] | IC50 [3] [µM] | IC50 ([2]; A431 cells, 100 ng/ml EGF, 10 min stimulation) [µM] | IC50 ([3]; A431 cells, 3 days, SRB) [µM] |
| --- | --- | --- | --- | --- | --- | --- | --- |
| COc1cc2ncnc(N[C@H](COC(C)=O)c3ccccc3)c2cc1OC [FCE 29772, (S)-4-[α-(acetoxymethyl)benzylamino]-6,7dimethoxyquinazoline] | 94.9 | 98 | 0.081 | 1.31 | 5.3 |  |  |
| COc1cc2ncnc(N[C@H](CO)c3ccccc3)c2cc1OC [FCE 29771, (S)-4-[α-(hydroxymethyl)benzylamino]-6,7dimethoxyquinazoline] | 93.8 | 98.3 | 0.024 |  |  | 0.8 | > 1.56 |

From patent US6057326A, “Bicyclic 4-aralkylaminopyrimidine derivatives as tyrosine kinase inhibitors” (Pharmacia & Upjohn S.p.A, priority 1996, dated 2000)
